{"source": "patent US11235001B2", "about": "“RUNX inhibitor” (KYOTO UNIVERSITY, priority 2016, dated 2022)", "key": {"[1]": {"tested_on": "medulloblastoma cell line DAOY", "conditions": "DAOY (SHH, TP53-mutated), 48 hours"}, "[2]": {"tested_on": "A549 cells", "assay": "Xenograft lung cancer mouse model (A549)", "type": "in vivo"}, "[3]": {"tested_on": "BCR-ABL gene", "assay": "qRT-PCR of BCR-ABL gene in CML and PhALL cells", "type": "cell-based, human", "conditions": "3 μM or 1 μM, 6 hours", "experimental": "(§1) A total RNA was isolated with RNeasy mini kit (Qiagen) and reverse transcribed with Reverse script kit (TOYOBO) to generate cDNA. Real-time quantitative polymerase chain reaction (PCR) was carried out with 7500 Real-Time PCR System (Applied Biosystems) according to the manufacturer's instructions. Results were normalized to GAPDH levels. Relative expression levels were calculated using the 2-ΔΔCt method.\nTo BV173 cells, MYL cells, SU-Ph2 cells, and SU/SR cells, 3 μM or 1 μM of Chb-M′ was administered. After 6 hours, a total RNA was extracted from the cells, and then subjected to qRT-PCR (see the above-described “Real-time quantitative PCR (qRT-PCR)”) to quantify the expression levels of BCR-ABL gene. As a control, DMSO was administered. In the figures, the expression levels are shown as values relative to the mRNA level of p210BCR-ABL or the mRNA level of p190BCR-ABL in the DMSO (control)-administered group."}, "[4]": {"tested_on": "c-kit (KIT D816V mutation and V560G mutation)", "assay": "FACS of cell surface c-kit, HMC-1.2 mast cells", "type": "cell-based, human", "conditions": "HMC-1.2 (mutated c-kit), 10 μM, 18-hour treatment; DMSO 113", "excerpt": "Mast cells cause symptoms or diseases such as allergic reaction by receptor-mediated activation. In addition, c-kit signal transduction enhances release of chemical mediators from stimulated mast cells. The effect of the RUNX inhibitor on human mast cells was examined. As human mast cells, a LAD2 cell line (expressing wild-type c-kit) and an HMC-1.2 cell line (expressing mutated c-kit) were used. The HMC-1.2 cell line has KIT D816V mutation and V560G mutation. Wild-type c-kit is a SCF receptor and the cell proliferation is dependent on SCF. Accordingly, regarding the LAD2 cell line, 50 ng/ml of SCF was administered and experiments were performed as described below. The HMC-1.2 cell line has a mutation in c-kit and the cell proliferation is independent of SCF. Accordingly, regarding the HMC-1.2 cell line, SCF was not administered and experiments were performed as described below. As the RUNX inhibitor, Chb-M′ was used. […]\nTo the LAD2 cell line, 10 μM Chb-M′ was administered. After 3 hours and 18 hours, different antibodies were used for immunostaining of c-kit expressed on the cell surface, and the expression levels were analyzed by FACS (fluorescence-activated cell sorter). […] After 18 hours, different antibodies were used for immunostaining of c-kit expressed on the cell surface, and the expression levels were analyzed by FACS. […]"}, "[5]": {"tested_on": "LNCaP cells", "conditions": "read-out: IC50 (μM) in LNCaP cells; LNCaP (androgen-dependent), 48 hours"}, "[6]": {"tested_on": "GATA2, E2F5, and AR", "assay": "qRT-PCR of prostatic adenocarcinoma-related factors in PC-3", "type": "cell-based, human", "conditions": "PC-3, 5 μM, 6 hours", "experimental": "as §1\nTo prostatic adenocarcinoma cell line PC-3, 5 μM Chb-M′ was administered. After 6 hours, the mRNA levels of GATA2, E2F5, and AR (androgen receptors), which are important genes for proliferation of prostate cancer cells, were evaluated by qRT-PCR (see the above-described “Real-time quantitative PCR (qRT-PCR)”). As a control, DMSO was administered. In the figure, the mRNA expression levels of GATA2, E2F5, and AR are shown as values relative to those in the DMSO-treated group. As evident from FIG. 45, the expressions of GATA2, E2F5, and AR were suppressed by Chb-M′ at transcriptional levels."}, "[7]": {"tested_on": "HL60", "conditions": "HL60, p53null; for IC50: 48 hours"}, "[8]": {"tested_on": "MV4-11 cells", "assay": "Xenograft AML mouse model (MV4-11)", "type": "in vivo", "conditions": "NOG mice with MV4-11, day 14"}, "[9]": {"tested_on": "SU-Ph2 cells", "assay": "Cell growth inhibition assay, SU-Ph2 cells", "type": "cell-based, human", "conditions": "SU-Ph2, 48 hours"}}, "note": "Read-outs that look alike come from different tables or passages of the source.", "data": [{"smiles": "CN(C)CCCNC(=O)c1cc(NC(=O)c2cc(NC(=O)c3cc(NC(=O)c4cc(NC(=O)CCCNC(=O)c5nc(NC(=O)c6nc(NC(=O)c7cc(NC(=O)c8nc(NC(=O)CCNC(=O)CCCc9ccc(N(CCCl)CCCl)cc9)cn8C)cn7C)cn6C)cn5C)cn4C)cn3C)cn2C)cn1C", "note": "[Chb-M′]", "values": [{"measurement": "IC50", "setting": "[1]", "result": 812, "unit": "nM"}, {"measurement": "Effect on the lung cancer model", "setting": "[2]; A549 xenograft", "result": "inhibited the growth"}, {"measurement": "H&E staining of lung tissue (lung cancer cells in pulmonary alveoli)", "setting": "[2]; day 14 after transplantation", "result": "rather diminished"}, {"measurement": "Brightness of luciferase (IVIS), lung", "setting": "[2]; day 14 after transplantation, after 2 administrations", "result": "rather weakened"}, {"measurement": "Bioluminescence signal intensity vs DMSO or gefitinib", "setting": "[2]; day 21 after transplantation", "result": "far lower"}, {"measurement": "Brightness of luciferase (IVIS), lung", "setting": "[2]; day 21 after transplantation, after total 4 administrations", "result": "further weakened"}, {"measurement": "Lengthening of overall survival periods", "setting": "[2]; mice with gefitinib-resistant A549, 320 μg/kg IV twice a week from day 7", "result": "about 2 times"}, {"measurement": "mRNA level of p210BCR-ABL", "setting": "[3]; BV173 cells", "result": "decreased"}, {"measurement": "mRNA level of p210BCR-ABL", "setting": "[3]; MYL cells", "result": "decreased"}, {"measurement": "mRNA level of p190BCR-ABL", "setting": "[3]; SU-Ph2 cells", "result": "decreased"}, {"measurement": "mRNA level of p190BCR-ABL", "setting": "[3]; SU/SR cells", "result": "decreased"}, {"measurement": "MFI (mean fluorescent intensity) of surface c-kit", "setting": "[4]", "result": 100}, {"measurement": "IC50", "setting": "[5]", "result": 0.68, "unit": "µM"}, {"measurement": "Expressions of GATA2, E2F5, and AR (mRNA)", "setting": "[6]", "result": "suppressed"}, {"measurement": "CI (Fa = 0.5)", "setting": "[7]; concomitant use of Chb-M′ and PRIMA-1, Chou-Talalay, CI<1 synergism", "result": 1.10}, {"measurement": "IC50", "setting": "[7]; read-out: IC50 (μM) of Chb-M′ in concomitant use with PRIMA-1 (5 μM), with 5 μM PRIMA-1", "result": 11.7, "unit": "µM"}, {"measurement": "IC50", "setting": "[7]; read-out: IC50 (μM) of Chb-M′ single agent administration", "result": 11.4, "unit": "µM"}, {"measurement": "H&E staining of bone marrow", "setting": "[8]", "result": "homogeneity was lost"}, {"measurement": "hCD45 staining of bone marrow (human leukemia cells)", "setting": "[8]", "result": "most of the brown parts lost"}, {"measurement": "IC50 compared with that of imatinib", "setting": "[9]", "result": "lower IC50 values"}]}]}
